Legend:
GluN1/GluN2A/GluN3A = test: Whole-cell patch-clamp on HEK-293 cells transiently transfected with GluN1/GluN2A/GluN3A (1:1:2); assay type: cell-based; conditions: 30 μM WZB117; 100 μM glutamate and 100 μM glycine; mixed receptor population
Description: Whole-cell patch-clamp recordings were performed at room temperature (22–25°C) using an EPC-10 amplifier and Patch Master Software (HEKA). Pipettes were pulled from borosilicate glass capillaries (World Precision Instruments), and the resistances were 3–5 MΩ when filled with the intracellular solution. The extracellular solution contained (in mM): 140 NaCl, 2.8 KCl, 1 CaCl2, 10 HEPES and 20 sucrose (290–300 mOsm), pH adjusted to 7.3 using NaOH. The pipette solution contained (in mM): 115 CsF, 10 CsCl, 10 HEPES and 10 BAPTA (280–290 mOsm), pH adjusted to 7.2 using CsOH ([Grand et al., 2018]). When recording in hippocampal neurons, the extracellular solution contained (in mM): 140 NaCl, 5 KCl, 1 CaCl2, 1.25 MgCl2, 10 glucose, and 10 HEPES, and the pH was adjusted to 7.4 using NaOH, and the pipette solution contained (in mM): 140 KCl, 1 MgCl2, 10 EGTA, and 10 HEPES, and the pH was adjusted to 7.2 using KOH ([Xie et al., 2020]). Drug-containing solutions were applied through an RSC-200 Rapid Solution Changer with a 9-tube head (BioLogic Co., France), in which the cell is positioned close to the output of a capillary. […]
Supplementary Figure S3 Effects of WZB117 on currents from HEK-293 cells co-expressing GluN1/GluN2A/GluN3A subunits. […] The data of GluN1/GluN2A were analyzed from Figure 3D. […]

AMPA receptors = test: Whole-cell patch-clamp, AMPA-induced currents in acutely isolated hippocampal neurons; assay type: cell-based, rat; conditions: 10 μM WZB117
Description: Hippocampal neurons were obtained from Sprague-Dawley rats (aged P7-14). Briefly, the isolated hippocampal tissues were cut into approximately […] slices along the sagittal plane and were digested with 3 mg/ml proteinase (Sigma-Aldrich) at 32°C for 8 min. Then 1 mg/ml bovine serum albumin (Sangon Biotech) and 1 mg/ml trypsin inhibitor (Sigma-Aldrich) were used to stop the digestion. A few slices of the hippocampus were gently blown into single cells with the dissecting solution, then transferred to a dish and left to rest for 20 min before experiments. The dishes were preprocessed. Essentially, the bottom of the dish was covered with discarded cell suspension the day before the experiment and was washed and dried the next day, which prevented the neurons from sticking to the bottom too tightly. The dissecting solution contained (in mM): 82 Na2SO4, 30 K2SO4, 5 MgCl2, 1 Na pyruvate, 10 HEPES, and 20 glucose. The pH was adjusted to 7.2 using NaOH ([Xie et al., 2020]).
Whole-cell patch-clamp recordings were performed at room temperature (22–25°C) using an EPC-10 amplifier and Patch Master Software (HEKA). Pipettes were pulled from borosilicate glass capillaries (World Precision Instruments), and the resistances were 3–5 MΩ when filled with the intracellular solution. […]

[1] = molecular target: T1, chimera GluN3A^670-673 MWPL/LEPF (UniProt Q05586+Q9R1M7, L673F/M670L/W671E); test: Whole-cell patch-clamp on transiently transfected CHO cells, GluN3A chimera; assay type: cell-based
T1 construct: expressed in transfected cells; host or cells: CHO, transient
Description: To establish GluN1/GluN3A stable cell lines, the human GluN1-1a (GenBank: NP_015566.1) and the rat GluN3A (GenBank: NP_612555.1) genes were subcloned into the pcDNA5-FRT-To and pcDNA3.1 vectors, respectively. An EGFP tag was added to the C-terminus of GluN1 or GluN3A using a T2A linker for identification of transfected cells during transient transfection. Point mutations were introduced by site-directed mutagenesis using PrimeSTAR (Takara). The human GluN2A (GenBank: NP_000824.1) gene was subcloned into the pcDNA3.1 vector. The chimeras GluN3A^670-673 MWPL/LEPF and GluN2A^550-553 LEPF/MWPL were generated using In-Fusion HD Cloning kits (Takara). All constructs were confirmed by DNA sequencing (Beijing Genomics Institute).
The Flp-in T-Rex 293 cell lines (Invitrogen), stably expressing GluN1/GluN3A were grown in DMEM basal medium (Gibco) supplemented with 10% fetal bovine serum (FBS, Invitrogen), 15 μg/ml blasticidin S (Invitrogen), 50 μg/ml hygromycin B (Invitrogen) and 500 μg/ml G418 (Gibco). Expression in cell lines was induced with 1 μg/ml doxycycline (Invitrogen) 24–28 h prior to the experiments. Chinese hamster ovary (CHO) cells were grown in DMEM-F12 basal medium (Gibco) supplemented with 10% FBS. In the study on the action sites of WZB117, all whole-cell patch-clamp recordings were performed on CHO cells. […]

T1 sequence (Q9R1M7 24-1135 M670L/W671E/L673F, other chains not shown): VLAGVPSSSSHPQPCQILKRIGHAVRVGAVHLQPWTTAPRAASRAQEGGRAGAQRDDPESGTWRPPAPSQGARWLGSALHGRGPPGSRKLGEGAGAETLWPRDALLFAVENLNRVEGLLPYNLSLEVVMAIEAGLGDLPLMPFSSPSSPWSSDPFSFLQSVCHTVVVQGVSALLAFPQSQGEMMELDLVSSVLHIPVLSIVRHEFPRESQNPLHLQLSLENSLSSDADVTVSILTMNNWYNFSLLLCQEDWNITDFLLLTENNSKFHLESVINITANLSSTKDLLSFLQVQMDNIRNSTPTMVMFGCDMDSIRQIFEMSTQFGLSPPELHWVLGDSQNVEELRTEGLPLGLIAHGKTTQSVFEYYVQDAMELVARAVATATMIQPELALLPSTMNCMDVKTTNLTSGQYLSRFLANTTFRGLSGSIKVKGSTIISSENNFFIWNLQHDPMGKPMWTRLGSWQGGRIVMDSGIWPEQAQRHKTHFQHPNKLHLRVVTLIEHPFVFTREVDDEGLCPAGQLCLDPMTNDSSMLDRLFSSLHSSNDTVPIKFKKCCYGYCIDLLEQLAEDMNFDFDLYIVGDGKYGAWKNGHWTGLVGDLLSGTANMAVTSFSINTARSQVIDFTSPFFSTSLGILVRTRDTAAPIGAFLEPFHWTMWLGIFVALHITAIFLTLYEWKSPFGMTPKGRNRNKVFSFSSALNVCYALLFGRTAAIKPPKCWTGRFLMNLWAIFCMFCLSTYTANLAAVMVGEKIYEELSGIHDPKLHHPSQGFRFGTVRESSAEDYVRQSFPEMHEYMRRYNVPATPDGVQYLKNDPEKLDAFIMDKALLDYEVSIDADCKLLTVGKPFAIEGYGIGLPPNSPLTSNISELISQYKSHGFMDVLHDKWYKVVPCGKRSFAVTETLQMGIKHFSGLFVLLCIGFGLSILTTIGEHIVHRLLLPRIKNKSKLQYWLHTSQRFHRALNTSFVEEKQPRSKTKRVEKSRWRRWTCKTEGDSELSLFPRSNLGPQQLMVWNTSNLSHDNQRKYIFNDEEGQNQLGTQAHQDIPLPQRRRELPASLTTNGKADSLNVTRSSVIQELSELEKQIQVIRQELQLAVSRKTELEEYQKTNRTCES

## O=C(Oc1cccc(F)c1OC(=O)c1cccc(O)c1)c1cccc(O)c1 [WZB117, 3-fluoro-1,2-phenylene bis(3-hydroxybenzoate)]
GluN1/GluN2A/GluN3A
  I drug/I cotrol: 0.22 ± 0.04
AMPA receptors
  effect on AMPA-induced currents: almost ineffective
[1]
  inhibition on chimera: greatly reduced
